The values below are quoted from earlier work in patent publication US12404348B2, “Bifunctional chimeric molecules for labeling of kinases with target binding moieties and methods of use thereof” (The Brigham and Women's Hospital, Inc., priority 2021, dated 2025).

Read-outs that look alike come from different tables or passages of the source.

In data set [1] the test system is NF-κB Pathway. To be noted: U(37 cells).
The target of data set [2] is T1, Recombinant PKCζ (Homo sapiens, UniProt Q05513).
T1 sequence (Q05513 1-592): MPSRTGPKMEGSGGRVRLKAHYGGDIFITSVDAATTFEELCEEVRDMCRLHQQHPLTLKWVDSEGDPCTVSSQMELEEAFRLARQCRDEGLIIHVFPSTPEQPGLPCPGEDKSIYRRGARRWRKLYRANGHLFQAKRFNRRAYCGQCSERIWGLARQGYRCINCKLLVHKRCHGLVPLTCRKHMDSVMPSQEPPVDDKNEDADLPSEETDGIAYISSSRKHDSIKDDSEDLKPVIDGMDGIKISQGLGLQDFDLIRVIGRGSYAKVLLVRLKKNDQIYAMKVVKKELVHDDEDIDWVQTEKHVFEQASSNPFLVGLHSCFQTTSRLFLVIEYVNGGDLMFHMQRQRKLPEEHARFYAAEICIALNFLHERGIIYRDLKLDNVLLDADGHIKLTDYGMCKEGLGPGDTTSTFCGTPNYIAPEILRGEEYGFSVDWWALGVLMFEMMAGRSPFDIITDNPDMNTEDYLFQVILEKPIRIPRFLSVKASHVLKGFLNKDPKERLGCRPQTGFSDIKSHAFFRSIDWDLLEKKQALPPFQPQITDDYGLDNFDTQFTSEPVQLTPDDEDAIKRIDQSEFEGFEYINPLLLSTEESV

The target in data set [3] is T2, PDK1 (Homo sapiens, UniProt O15530).
T2 sequence (O15530 1-556): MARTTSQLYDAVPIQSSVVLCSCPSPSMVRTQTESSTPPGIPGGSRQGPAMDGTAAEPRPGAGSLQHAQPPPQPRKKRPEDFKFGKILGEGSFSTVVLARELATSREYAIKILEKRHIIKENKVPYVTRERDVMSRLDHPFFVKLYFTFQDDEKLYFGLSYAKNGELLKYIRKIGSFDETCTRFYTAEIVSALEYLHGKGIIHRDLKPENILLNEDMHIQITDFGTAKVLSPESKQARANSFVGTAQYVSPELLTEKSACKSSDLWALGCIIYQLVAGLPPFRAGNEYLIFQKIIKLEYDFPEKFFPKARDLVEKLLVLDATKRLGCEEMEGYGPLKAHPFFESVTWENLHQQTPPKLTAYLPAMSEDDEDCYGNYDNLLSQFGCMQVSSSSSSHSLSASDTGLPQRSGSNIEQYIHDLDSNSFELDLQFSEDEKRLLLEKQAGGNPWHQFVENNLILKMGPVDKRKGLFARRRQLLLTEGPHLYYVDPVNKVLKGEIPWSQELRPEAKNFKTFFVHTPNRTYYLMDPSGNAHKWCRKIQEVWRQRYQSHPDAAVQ

For data set [4], the target named is T3, PKCl (Homo sapiens, UniProt P41743).
T3 sequence (P41743 1-596): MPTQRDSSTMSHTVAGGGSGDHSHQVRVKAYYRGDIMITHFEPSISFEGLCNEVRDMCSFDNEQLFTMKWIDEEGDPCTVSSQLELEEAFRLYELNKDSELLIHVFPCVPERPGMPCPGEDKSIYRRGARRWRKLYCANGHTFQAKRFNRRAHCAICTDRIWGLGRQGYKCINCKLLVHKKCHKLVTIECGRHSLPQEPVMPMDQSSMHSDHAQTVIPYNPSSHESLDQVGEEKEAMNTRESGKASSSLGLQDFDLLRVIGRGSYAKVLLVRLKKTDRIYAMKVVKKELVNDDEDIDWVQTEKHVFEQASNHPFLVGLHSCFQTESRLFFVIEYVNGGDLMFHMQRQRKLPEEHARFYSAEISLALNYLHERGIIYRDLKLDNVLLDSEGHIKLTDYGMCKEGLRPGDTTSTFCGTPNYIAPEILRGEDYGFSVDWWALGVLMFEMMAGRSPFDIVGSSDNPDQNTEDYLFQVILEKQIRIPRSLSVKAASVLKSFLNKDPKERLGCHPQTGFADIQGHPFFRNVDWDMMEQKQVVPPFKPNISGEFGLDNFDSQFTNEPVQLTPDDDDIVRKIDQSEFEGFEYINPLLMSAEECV

Data set [5] has as its target AKT1 (Homo sapiens, UniProt P31749).
The target of data set [6] is T2, PDK1. To be noted: for Kd: read-out: ITC Kd.

Sequence of AKT1 (P31749 whole entry): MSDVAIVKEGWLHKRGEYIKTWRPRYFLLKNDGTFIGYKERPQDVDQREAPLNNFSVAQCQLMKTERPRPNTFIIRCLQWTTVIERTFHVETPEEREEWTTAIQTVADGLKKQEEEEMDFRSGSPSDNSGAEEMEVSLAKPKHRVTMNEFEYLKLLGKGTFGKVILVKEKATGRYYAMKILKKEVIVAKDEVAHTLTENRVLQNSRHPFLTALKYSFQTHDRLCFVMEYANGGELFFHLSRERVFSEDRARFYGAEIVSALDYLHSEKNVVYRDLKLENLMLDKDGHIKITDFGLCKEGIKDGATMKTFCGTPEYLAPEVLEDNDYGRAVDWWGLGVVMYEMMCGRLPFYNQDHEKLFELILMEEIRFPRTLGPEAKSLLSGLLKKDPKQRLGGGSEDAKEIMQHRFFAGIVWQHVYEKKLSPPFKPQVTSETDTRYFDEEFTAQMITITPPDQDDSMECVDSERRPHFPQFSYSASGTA

Consider `CC(C)(C)C1=NN(c2ccc(Cl)cc2Cl)C(c2ccc(O)cc2)C1` (centres unmarked) [1n], for which the “NF-κB reporter gene assay % inhibin at 5 μM” value in data set [1] was 50.2%. In data set [2], the “cell-free assay % inhibin at 62.5 μM” value is reported as 71.0%.
Regarding `CC(C)c1ccc(N2N=C(C(C)(C)C)CC2c2ccc(O)cc2)cc1` (centres unmarked) [1f], in data set [2], the “cell-free assay % inhibin at 62.5 μM” value is 54.9%.
On to `O=C(O)/C=C(\CCc1ccc(Cl)cc1Cl)c1ccccc1` [Compound 8E], for which, in data set [3], the AC50 entry is “n.e” and the Amax entry is listed as “n.e”.
In the case of `CC(C)(C)C1=NN(c2cccc(C(F)(F)F)c2)C(c2ccc(O)cc2)C1` (centres unmarked) [1j], the “NF-κB reporter gene assay % inhibin at 5 μM” value in data set [1] was 89.7%. For the same compound, the IC50 in data set [1] (read-out: NF-κB reporter gene assay IC50 ± SD) was 2.7 ± 0.32 µM. Further, in data set [4], the “PKCl % inhibn at 20 μM” value is 17.0%.
Turning to `Nc1ccc(-n2c(-c3cccnc3N)nc3cccnc32)cc1` [Compound 5d], in data set [5], the “Akt1 ΔTm” value was 4.1 °C.
In the case of `O=C(O)/C=C(/CCc1c[nH]c2ccccc12)c1ccccc1` [Compound 13Z], in data set [6], the “ITC Ka” value is on record as 9.63E4 — M^-1, the “ITC TΔS” value was 2.60 kcal/mol, the “ITC ΔG” value is -6.73 kcal/mol and the “ITC ΔH” value was -4.09 kcal/mol. For the same compound, the “ITC ΔH/ΔG” value in data set [6] is on record as 60.8%. Further, in data set [3], the Amax is 3.1 fold.
As for `Nc1ncccc1-c1nc2cccnc2n1-c1ccc(CNCc2ccccc2)cc1` [Compound 8h], in data set [5], the “Akt1 ΔTm” value was 4.9 °C.
For `CC(C)(C)C1=NN(c2ccc(C(=O)O)cc2)C(c2ccc(O)cc2)C1` (centres unmarked) [1g], the “NF-κB reporter gene assay % inhibin at 5 μM” value in data set [1] is 40.7%. In addition, the “cell-free assay % inhibin at 62.5 μM” value in data set [2] is 47.9%.
With `CC(C)(C)C1=NN(c2ccc(Br)cc2)C(c2ccc(O)cc2)C1` (centres unmarked) [1c], the “NF-κB reporter gene assay % inhibin at 5 μM” value in data set [1] is given as 58.4%.
As to `Cc1ccc(N2N=C(C(C)(C)C)CC2c2ccc(O)cc2)c(C)c1` (centres unmarked) [1p], the “NF-κB reporter gene assay % inhibin at 5 μM” value in data set [1] is 41.5%. For the same compound, the “cell-free assay % inhibin at 62.5 μM” value in data set [2] is given as 59.9%.
Turning to `COc1ccccc1Cn1c(-c2cccnc2N)nc2cccnc21` [Compound 3c], in data set [5], the “Akt1 ΔTm” value is “no shift”.
In the case of `O=C(O)/C=C(/CCc1cccc(Cl)c1)c1ccccc1` [Compound 3Z], in data set [3], the Amax was 2.2 fold.
On to `Nc1ncccc1-c1nc2cccnc2n1-c1cccc(CNC(=O)c2ccccc2)c1` [Compound 8g], for which, in data set [5], the “Akt1 ΔTm” value was “no shift”.
Consider `CC(=O)Nc1ccc(-n2c(-c3cccnc3N)nc3cccnc32)cc1` [Compound 5c], for which the “Akt1 ΔTm” value in data set [5] is 3.7 °C.
Regarding `O=C(O)/C=C(/CCc1ccc(C(F)(F)F)cc1)c1ccccc1` [Compound 6Z], in data set [6], the “ITC Ka” value was 9.66E4 — M^-1, the “ITC TΔS” value was 4.79 kcal/mol, the “ITC ΔG” value was -6.73 kcal/mol and the “ITC ΔH” value is -1.94 kcal/mol. In addition, in data set [6], the “ITC ΔH/ΔG” value is on record as 28.8% and the Kd was 10.4 µM. In data set [3], the Amax was 4.4 fold. The AC50 in data set [3] (read-out: AC50) is 7.1 µM.
Turning to `CCc1ccc(CC/C(=C/C(=O)O)c2ccccc2)cc1` [Compound 10Z], the Amax in data set [3] is reported as 1.4 fold. For the same compound, the AC50 in data set [3] (read-out: AC50) was > 30 µM.
As for `CC(C)(C)C1=NN(c2ccccc2F)C(c2ccc(O)cc2)C1` (centres unmarked) [1m], the “NF-κB reporter gene assay % inhibin at 5 μM” value in data set [1] is listed as 48.7%. In data set [2], the “cell-free assay % inhibin at 62.5 μM” value is recorded as 57.6%.
With `O=C(O)/C=C(/CCc1ccc(Cl)cc1Cl)c1ccccc1` [Compound 8Z], in data set [6], the “ITC Ka” value was 1.71E5 — M^-1, the “ITC TΔS” value was 4.93 kcal/mol, the “ITC ΔG” value is -7.07 kcal/mol and the “ITC ΔH” value was -2.08 kcal/mol. In data set [6], the “ITC ΔH/ΔG” value was 29.5%. Further, the Amax in data set [3] is listed as 2.1 fold. Besides, the AC50 in data set [3] (read-out: AC50) was 4.7 µM.
Turning to `O=C(O)/C=C(/CCc1ccc2ccccc2c1)c1ccccc1` [Compound 12Z], in data set [6], the “ITC Ka” value is recorded as 7.26E4 — M^-1, the “ITC TΔS” value is 1.96 kcal/mol, the “ITC ΔG” value was -6.67 kcal/mol and the “ITC ΔH” value is -4.56 kcal/mol. Also, the “ITC ΔH/ΔG” value in data set [6] was 68.3%. Also, in data set [3], the Amax is 3.5 fold.
On to `CC(C)(C)C1=NN(c2ccccc2Cl)C(c2ccc(O)cc2)C1` (centres unmarked) [1l], for which, in data set [1], the “NF-κB reporter gene assay % inhibin at 5 μM” value was 23.5%. Further, the “cell-free assay % inhibin at 62.5 μM” value in data set [2] is on record as 57.1%.
For `CC(C)(C)C1=NN(c2cccc(Cl)c2)C(c2ccc(O)cc2)C1` (centres unmarked) [1h], in data set [1], the “NF-κB reporter gene assay % inhibin at 5 μM” value was 64.6%. Further, in data set [4], the “PKCl % inhibn at 20 μM” value is on record as 43.5%.
Turning to `CC(C)(C)C1=NN(c2ccc(F)cc2F)C(c2ccc(O)cc2)C1` (centres unmarked) [1o], the “NF-κB reporter gene assay % inhibin at 5 μM” value in data set [1] was 51.8%. Also, the “cell-free assay % inhibin at 62.5 μM” value in data set [2] is recorded as 68.0%.
With `O=C(O)/C=C(/CCc1ccc(F)cc1)c1ccccc1` [Compound 4Z], the Amax in data set [3] is reported as 3.3 fold.
As to `Oc1ccc(C2CC(c3ccccc3O)=NN2c2ccc(Cl)cc2)cc1O` (centres unmarked) [4g], the “PKCl % inhibn at 20 μM” value in data set [4] was 44.1%.
As to `CC(C)(C)C1=NN(c2ccc(F)c(F)c2)C(c2ccc(O)cc2)C1` (centres unmarked) [1s], in data set [4], the “PKCl % inhibn at 20 μM” value was 23.7%.
Turning to `O=C(O)/C=C(\CCc1ccc(-c2ccccc2)cc1)c1ccccc1` [Compound 11E], the Amax result in data set [3] was “n.e”.
Take `O=C(O)/C=C(/CCc1ccc(Br)cc1)c1ccccc1` [Compound 5Z]: in data set [6], the “ITC Ka” value is given as 4.78E4 — M^-1, the “ITC TΔS” value is 3.20 kcal/mol, the “ITC ΔG” value is -6.32 kcal/mol and the “ITC ΔH” value was -3.07 kcal/mol. In addition, the “ITC ΔH/ΔG” value in data set [6] is 48.6%. In addition, the Amax in data set [3] was 3.9 fold.
On to `Cc1ccc(N2N=C(C(C)(C)C)CC2c2ccc(O)cc2)cc1` (centres unmarked) [1e], for which, in data set [1], the “NF-κB reporter gene assay % inhibin at 5 μM” value is recorded as 62.9%.
Take `O=C(O)/C=C(/CCc1ccc(-c2ccccc2)cc1)c1ccccc1` [Compound 11Z]: the Amax in data set [3] is listed as 3.2 fold.
`Cc1cccc(N2N=C(C(C)(C)C)CC2c2ccc(O)cc2)c1` (centres unmarked) [1k]: the “NF-κB reporter gene assay % inhibin at 5 μM” value in data set [1] is listed as 73.7%. Moreover, in data set [4], the “PKCl % inhibn at 20 μM” value was 13.9%.
Take `NCc1ccc(-n2c(-c3cccnc3)nc3cccnc32)cc1` [Compound 5b]: the “Akt1 ΔTm” value in data set [5] is on record as “no shift”.
For `O=C(O)/C=C(/CCc1ccc(Cl)c(Cl)c1)c1ccccc1` [Compound 7Z], in data set [6], the “ITC Ka” value is on record as 7.18E4 — M^-1, the “ITC TΔS” value was 2.80 kcal/mol, the “ITC ΔG” value was -6.56 kcal/mol and the “ITC ΔH” value is -3.71 kcal/mol. In data set [6], the “ITC ΔH/ΔG” value is 56.6% and the dissociation constant Kd was 13.9 µM. Also, the Amax in data set [3] is 2.4 fold. Moreover, in data set [3] (read-out: AC50), the AC50 is 2.8 µM.
Take `CCc1ccc(CC/C(=C\C(=O)O)c2ccccc2)cc1` [Compound 10E]: in data set [3], the AC50 entry is listed as “n.e” and the Amax result was “n.e”.
On to `CC(C)(C)C1=NN(c2ccc(F)cc2)C(c2ccc(O)cc2)C1` (centres unmarked) [1b], for which, in data set [1], the “NF-κB reporter gene assay % inhibin at 5 μM” value was 63.8%.
With `O=C(O)/C=C(\CCc1ccc(F)cc1)c1ccccc1` [Compound 4E], in data set [3], the AC50 result is recorded as “n.e” and the Amax result is “n.e”.
As for `CC(C)(C)C1=NN(c2cccc(F)c2)C(c2ccc(O)cc2)C1` (centres unmarked) [1i], in data set [1], the “NF-κB reporter gene assay % inhibin at 5 μM” value is recorded as 73.5%. The “PKCl % inhibn at 20 μM” value in data set [4] was 19.3%.
